Assay results published in publication PMC10747602, “Dose Response, Dosimetric, and Metabolic Evaluations of Replacement PFAS Perfluoro-(2,5,8-trimethyl-3,6,9-trioxadodecanoic) Acid (HFPO-TeA)” (Toxics, 2023).
Like-named read-outs stand apart in the source and are kept apart here.

How the values were obtained:
[1] = system: Thyroid hormones T3, rT3, and T4; test: Plasma thyroid hormone assessment; format: in vivo, Sprague Dawley rats; conditions: 5 days
Method: Information on the chemicals used in the plasma thyroid hormone analysis can be found in Supplementary Text S2 and Table S3. Thyroid hormones T3, rT3, and T4 were extracted from 20 µL of plasma (5 days) following the procedure outlined by O’Shaughnessy et al.. Briefly, plasma was spiked with internal standards ^13C6-T3, ^13C6-rT3, and ^13C6-T4, and extracted using Evolute CX SPE plates (10 mg, 1 mL, Biotage, Charlotte, NC, USA). Extracts were eluted using a positive pressure manifold. Refer to Supplementary Text S2 for complete details of the extraction method.
Targeted, quantitative analysis of the thyroid hormone levels was conducted using a 6500+ QTRAP liquid chromatography/mass spectrometer system (Sciex, Framingham, MA, USA) operated in positive ion multiple reaction monitoring (MRM) scan mode with electrospray ionization (ESI). […] Gradient elution was obtained using eluent A (0.1% formic acid; FA (aqueous)) and eluent B (MeOH with 0.1% FA). The gradient used is found in Table S4. Additional instrument parameters can be found in Table S5 and monitored transitions in Table S6. Statistical analysis is described in Supplementary Text S3. […]
Support ing Text S1: Chemicals
Chemicals used for solvent and mobile phases include methanol (MeOH), water (H2O), and acetonitrile (ACN) which were LC/MS grade and purchased from Honeywell Burdick & Jackson (Charlotte, NC, USA). Ethanol (EtOH) used as a solvent was ACS grade and purchased from Honeywell Burdick & Jackson. Ammonium formate (BioUltra purity) and ammonium acetate (99% pure) were used as mobile phase additives and obtained from Millipore Sigma (St. Louis, MO, USA). Formic acid (FA; 97.5% pure) was also used as an additive; it was purchased from Honeywell Fluka (Charlotte, NC, USA).
Detailed information for chemicals used for each analysis may be found in Table S1.
Support ing Text S2: Thyroid Hormone Chemicals and Analysis
3,3’,5-Triiodothyronine (Chemical Abstract Service Registry Number (CASRN) 6893-02-3 | U.S.
Environmental Protection Agency (U.S. EPA) Distributed Structure-Searchable Toxicity (DSSTox) substance identifier (DTXSID) DTXSID8023216 | T3; ˃ 99% pure), mass-labeled 3,3’,5-triiodothyronine […]
98% pure), mass-labeled 3,3’,5’-triiodothyronine hydrochloride (13C6-rT3; ˃ 99% pure), L-thyroxine […]
pure) were purchased from Cerilliant Corporation (Round Rock, Texas, USA).
Briefly, a 20 µL aliquot of plasma from each sample was loaded into individual wells of a 96-well collection plate. They were spiked with 5 µL of a 40 ng/mL 13C6-T3, 13C6-rT3 and 13C6-T4 mixed solution followed by 1N hydrochloric acid (HCl) (20 µL) (36.5-38%, Fisher Scientific. Waltham, MA, USA), H2O (100 µL), and a 50:50 H2O/ACN solution (vol/vol) (60 µL) containing 0.1% formic acid (FA). Samples were vortexed, incubated at 37 °C for 2 hours, and brought to room temperature. They were diluted with an aqueous 0.1% acetic acid solution (LC/MS grade, Honeywell Fluka) and vortexed. The SPE well plates (Evolute CX, 96-well SPE plate, 10 mg, 1 mL, Biotage, Charlotte, NC, USA), processed with a positive pressure manifold, were conditioned with methanol followed by an aqueous 0.1% acetic acid solution prior to sample loading with low pressure. Plate wells were washed with 0.1% acetic acid followed by methanol. Thyroid hormones were eluted into a collection plate with 2.5% ammonium hydroxide (NH4OH) (28-30%, Thermo Fisher Scientific, Waltham, MA, USA) in methanol. Extracts were then evaporated to dryness with nitrogen using a Turbovap (Biotage) then reconstituted in 100 µL of 25:75 ACN/H2O (vol/vol) with 0.1% acetic acid. Extracts were stored in amber micro-sampling vials (Agilent Technologies, Santa Clara, CA, USA) prior to instrumental analysis.
Samples were quantitated against matrix-matched calibration curves containing a minimum of 5 points spanning the range 0.005 – 25.00 ng/mL. Calibration standards were made by combining T3, rT3, and T4 analytes with the 13C6-T3, 13C6-rT3, and 13C6-T4 internal standards then with commercial rat […]

[2] = design: method as in PMID 35436088; conditions: male mice, cited from earlier work
hepatocytes = test: Hepatic metabolite formation assay with non-targeted analysis; format: in vitro ADME, human and rat
Method: Extracts of plasma (50 µL), liver (10 mg), and hepatocyte metabolism assay media (10 µL) were analyzed by high-resolution, accurate mass non-targeted analysis (NTA) for the detection and identification of potential biotransformation products of HFPO-TeA. A mixture of ^13C-labeled PFAS compounds (MPAC-C-ES, Wellington Laboratories, Guelph, ON, Canada) were used as tracers. Samples were extracted, as detailed above (in vivo) and below (in vitro), and then analyzed in triplicate in a randomized order on a Sciex X500R QTOF. Additional information on NTA instrumental analysis and data processing parameters is presented in Supplementary Text S8 and Tables S8 and S10 [52]. […] A screening list of potential biotransformation products was generated using the U.S. EPA web application CTS: Chemical Transformation Simulator 1.0 and Biotransformer 3.0 [53, 54]. In some instances, molecular structure predictions were performed using MetFrag.
For the hepatic metabolite formation assays, the procedure described above was followed with the following modifications: assay concentrations of 50 and 100 µM were used, and samples were collected at times T0, T30, T60, and T120 min. Aliquots (10 µL) were combined with an equal volume of H2O. Non-targeted screening of potential biotransformation or degradation products of these samples was performed on the Sciex instrumentation described above.

Row | SMILES | rT3 Conc. in plasma ([1]; 0.3 mg/kg/day, F, individual rats, LOQ 0.005 ng/mL) | rT3 Conc. in plasma ([1]; 0.3 mg/kg/day, M, individual rats, LOQ 0.005 ng/mL) | rT3 Conc. in plasma ([1]; 0.9 mg/kg/day, F, individual rats, LOQ 0.005 ng/mL) | rT3 Conc. in plasma ([1]; 0.9 mg/kg/day, F, mean ± SD of replicates above LOQ (0.005 ng/mL)) | rT3 Conc. in plasma ([1]; 0.9 mg/kg/day, M, individual rats, LOQ 0.005 ng/mL) | rT3 Conc. in plasma ([1]; 0.9 mg/kg/day, M, mean ± SD of replicates above LOQ (0.005 ng/mL)) | rT3 Conc. in plasma ([1]; 2.3 mg/kg/day, F, individual rats, LOQ 0.005 ng/mL) | rT3 Conc. in plasma ([1]; 2.3 mg/kg/day, M, individual rats, LOQ 0.005 ng/mL) | rT3 Conc. in plasma ([1]; 6.3 mg/kg/day, F, individual rats, LOQ 0.005 ng/mL) | rT3 Conc. in plasma ([1]; 6.3 mg/kg/day, M, individual rats, LOQ 0.005 ng/mL) | rT3 Conc. in plasma ([1]; 17 mg/kg/day, F, individual rats, LOQ 0.005 ng/mL) | rT3 Conc. in plasma ([1]; 17 mg/kg/day, M, individual rats, LOQ 0.005 ng/mL) | experimental Kp ([2]; 0.02 mg/kg/day for 7 days) | experimental Kp ([2]; 0.2 mg/kg/day for 7 days) | experimental Kp ([2]; 2 mg/kg/day for 7 days) | presence of predicted biotransformation products (non-targeted analysis) (hepatocytes; in vitro hepatocyte assays) | abundance relative to HFPO-TeA (hepatocytes; T0 active hepatocyte preparation) [%]
1 | O=C(O)C(F)(OC(F)(F)C(F)(OC(F)(F)C(F)(OC(F)(F)C(F)(F)C(F)(F)F)C(F)(F)F)C(F)(F)F)C(F)(F)F (centres unmarked) [HFPO-TeA, perfluoro-(2,5,8-trimethyl-3,6,9-trioxadodecanoic) acid] | < LOQ | < LOQ | < LOQ | <LOQ | < LOQ | < LOQ | < LOQ | < LOQ | < LOQ | < LOQ | < LOQ | < LOQ | approximately 20 | ~40 | ~5 | None of the biotransformation products predicted using CTS were observed | 
2 | O=C(O)C(F)(OC(F)(F)C(F)(OC(F)(F)C(F)(F)C(F)(F)F)C(F)(F)F)C(F)(F)F (centres unmarked) [HFPO-TA, perfluoro-(2,5-dimethyl-3,6-dioxanonanoic) acid] |  |  |  |  |  |  |  |  |  |  |  |  |  |  |  |  | < 1
